Test results as given in patent US20200131180A1, “POSITIVE ALLOSTERIC MODULATORS OF THE MUSCARINIC ACETYLCHOLINE RECEPTOR M1” (Vanderbilt University, priority 2018, published 2020).

Target: T1, human mAChR M1 (Homo sapiens, UniProt P11229)
T1 sequence (P11229 1-460): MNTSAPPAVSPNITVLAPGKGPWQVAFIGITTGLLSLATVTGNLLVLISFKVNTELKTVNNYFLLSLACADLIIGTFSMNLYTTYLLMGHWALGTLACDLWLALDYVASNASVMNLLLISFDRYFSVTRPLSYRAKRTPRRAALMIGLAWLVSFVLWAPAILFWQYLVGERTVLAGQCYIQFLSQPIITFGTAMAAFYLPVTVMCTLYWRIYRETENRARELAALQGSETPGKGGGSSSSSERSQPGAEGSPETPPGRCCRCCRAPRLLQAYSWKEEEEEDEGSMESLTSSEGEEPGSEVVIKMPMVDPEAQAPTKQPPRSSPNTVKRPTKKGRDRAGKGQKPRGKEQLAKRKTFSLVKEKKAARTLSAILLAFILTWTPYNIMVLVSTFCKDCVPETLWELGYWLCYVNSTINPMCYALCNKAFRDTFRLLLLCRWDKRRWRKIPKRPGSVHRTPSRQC
Assay: mAChR M1 cell-based functional assay (calcium mobilization, PAM activity)
Conditions: CHO-K1 cells expressing hM1, calcium flux (Fluo-4); for EC50: concentration-dependent increase in the EC20 acetylcholine response; for Emax: potentiation of EC20 acetylcholine response
From the text: Chinese hamster ovary (CHO-K1) cells stably expressing rat (r)M1 were purchased from the American Type Culture Collection and cultured according to their indicated protocol. CHO cells stably expressing human (h)M2, hM3, and hM5 were described previously (Levey, et al., 1991); hM1 and hM4 cDNAs were purchased from Missouri S&T cDNA Resource; rM4 cDNA was provided by T. I. Bonner (National Institutes of Health, Bethesda, Md.). rM2 and rM3 were cloned from a rat brain cDNA library and sequence verified. hM1, rM2, rM3, hM4, and rM4 cDNAs were used to stably transfect CHO-K1 cells purchased from the American Type Culture Collection using Lipofectamine 2000. To make stable rM2, hM2, rM3, hM4, and rM4 cell lines for use in calcium mobilization assays, these cells also were stably transfected with a chimeric G-protein (Gqi5) (provided by B. R. Conklin, University of California, San Francisco) using Lipofectamine 2000. rM1, hM1, rM3, hM3, rM5, and hM5 cells were grown in Ham's F-12 medium containing 10% heat-inactivated fetal bovine serum (FBS), 20 mM HEPES, and 50 μg/mL G418 sulfate. rM2-Gqi5, hM2-Gqi5, and hM4-Gqi5 cells were grown in the same medium also containing 500 μg/mL Hygromycin B. Stable rM4-Gqi5 cells were grown in DMEM containing 10% heat-inactivated FBS, 20 mM HEPES, 400 μg/mL G418 sulfate, and 500 μg/mL Hygromycin B.
For high throughput measurement of agonist-evoked increases in intracellular calcium, CHO-K1 cells stably expressing muscarinic receptors were plated in growth medium lacking G418 and hygromycin at 15,000 cells/20 μL/well in Greiner 384-well black-walled, tissue culture (TC)-treated, clear-bottom plates (VWR). Cells were incubated overnight at 37° C. and 5% CO2. The next day, cells were washed using an ELX 405 (BioTek) with four washes (80 μL) of assay buffer then aspirated to 20 μL. Next, 20 μL of 16 μM Fluo-4/acetoxymethyl ester (Invitrogen, Carlsbad, Calif.) prepared as a 2.3 mM stock in DMSO and mixed in a 1:1 ratio with 10% (w/v) Pluronic F-127 and diluted in assay buffer was added to the wells and the cell plates were incubated for 50 min at 37° C. and 5% CO2. Dye was removed by washing with the ELX 405 (four 80 μL washes of assay buffer) then aspirated to 20 μL. Compound master plates were formatted in an 11 point CRC format (1:3 dilutions) in 100% DMSO with a starting concentration of 10 mM using the BRAVO liquid handler (Agilent). Test compound CRCs were then transferred to daughter plates (240 nL) using the Echo acoustic plate reformatter (Labcyte, Sunnyvale, Calif.) and then diluted into assay buffer (40 μL) to a 2× stock using a Thermo Fisher Combi (Thermo Fisher Scientific, Waltham, Mass.).
Calcium flux was measured using the Functional Drug Screening System (FDSS) 6000 (Hamamatsu Corporation, Tokyo, Japan) as an increase in the fluorescent static ratio. Compounds were applied to cells (20 μL, 2×) using the automated system of the FDSS 6000 at 4 s into the 300 s protocol and the data were collected at 1 Hz. At 144 s into the 300s protocol, 10 μL of an EC20 concentration of the muscarinic receptor agonist acetylcholine was added (5×), followed by the addition of 12 μL an EC80 concentration of acetylcholine at the 230 s time point (5×). Agonist activity was analyzed as a concentration-dependent increase in calcium mobilization upon compound addition. Emax values for agonist activity are expressed relative to the maximum for acetylcholine. Positive allosteric modulator activity was analyzed as a concentration-dependent increase in the EC20 acetylcholine response. Antagonist activity was analyzed as a concentration-dependent decrease in the EC80 acetylcholine response. Concentration-response curves were generated using a four-parameter logistical equation in XLfit curve fitting software (IDBS, Bridgewater, N.J.) for Excel (Microsoft, Redmond, Wash.) or Prism (GraphPad Software, Inc., San Diego, Calif.). […]

EC50	Emax	SMILES
739 nM	89%	Cn1cc(-c2ccc(Cc3cc(C(=O)N[C@H]4CCCC[C@@H]4O)c4ncnn4c3)cc2)cn1 [compound 31, N-[(1S,2S)-2-hydroxycyclohexyl]-6-[[4-(1-methylpyrazol-4-yl)phenyl]methyl]-[1,2,4]triazolo[1,5-a]pyridine-8-carboxamide]
3770 nM	86%	Cn1cc(-c2ccc(Cc3cc(C(=O)N[C@H]4CCC[C@@H]4O)c4ncnn4c3)cn2)cn1 [compound 17, N-[(1S,2S)-2-hydroxycyclopentyl]-6-[[6-(1-methylpyrazol-4-yl)-3-pyridyl]methyl]-[1,2,4]triazolo[1,5-a]pyridine-8-carboxamide]
1270 nM	85%	O=C(N[C@H]1CCOC[C@@H]1O)c1cc(Cc2ccc(-n3cccn3)cc2)cn2ncnc12 [compound 30, N-[(3R,4S)-3-hydroxytetrahydropyran-4-yl]-6-[(4-pyrazol-1-ylphenyl)methyl]-[1,2,4]triazolo[1,5-a]pyridine-8-carboxamide]
729 nM	84%	Cn1cc(-c2ccc(Cc3cc(C(=O)N[C@H]4CCCC[C@@H]4O)c4ncnn4c3)cn2)cn1 [compound 13, N-[(1S,2S)-2-hydroxycyclohexyl]-6-[[6-(1-methylpyrazol-4-yl)-3-pyridyl]methyl]-[1,2,4]triazolo[1,5-a]pyridine-8-carboxamide]
	36%	O=C(N[C@H]1CCOC[C@@H]1O)c1cc(Cc2ccc(C(F)(F)F)nc2)cn2ccnc12 [compound 66, N-[(3R,4S)-3-hydroxytetrahydropyran-4-yl]-6-[[6-(trifluoromethyl)-3-pyridyl]methyl]imidazo[1,2-a]pyridine-8-carboxamide]
4860 nM	66%	Cn1ccc(-c2ccc(Cc3cc(C(=O)NC4CC5(COC5)C4)c4ncnn4c3)cc2)n1 [compound 9, 6-[[4-(1-methylpyrazol-3-yl)phenyl]methyl]-N-(2-oxaspiro[3.3]heptan-6-yl)-[1,2,4]triazolo[1,5-a]pyridine-8-carboxamide]
313 nM	77%	Cn1ccc(-c2ccc(Cc3cc(C(=O)N[C@@H]4CCCC[C@H]4O)c4nccn4c3)cc2)n1 [compound 2, N-[(1R,2R)-2-hydroxycyclohexyl]-6-[[4-(1-methylpyrazol-3-yl)phenyl]methyl]imidazo[1,2-a]pyridine-8-carboxamide]
	65%	Cn1cc(-c2ccc(Cc3cc(C(=O)NC4CC5(COC5)C4)c4ncnn4c3)cn2)cn1 [compound 15, 6-[[6-(1-methylpyrazol-4-yl)-3-pyridyl]methyl]-N-(2-oxaspiro[3.3]heptan-6-yl)-[1,2,4]triazolo[1,5-a]pyridine-8-carboxamide]
97.8 nM	68%	Cc1c(Cc2ccc(-c3cnn(C)c3)cc2F)cc(C(=O)N[C@H]2CCCC[C@@H]2O)c2nccn12 [compound 57, 6-[[2-fluoro-4-(1-methylpyrazol-4-yl)phenyl]methyl]-N-[(1S,2S)-2-hydroxycyclohexyl]-5-methyl-imidazo[1,2-a]pyridine-8-carboxamide]
4290 nM	76%	Cn1ccc(-c2ccc(Cc3cc(C(=O)NC4CC5(COC5)C4)c4nccn4c3)cc2)n1 [compound 3, 6-[[4-(1-methylpyrazol-3-yl)phenyl]methyl]-N-(2-oxaspiro[3.3]heptan-6-yl)imidazo[1,2-a]pyridine-8-carboxamide]
404 nM	77%	Cn1cc(-c2ccc(Cc3cc(C(=O)N[C@H]4CCOC[C@@H]4O)c4ncnn4c3)c(F)c2)cn1 [compound 47, 6-[[2-fluoro-4-(1-methylpyrazol-4-yl)phenyl]methyl]-N-[(3R,4S)-3-hydroxytetrahydropyran-4-yl]-[1,2,4]triazolo[1,5-a]pyridine-8-carboxamide]
558 nM	58%	Cn1ccc(-c2cc(F)c(Cc3cc(C(=O)N[C@H]4CCCC[C@@H]4O)c4nccn4c3)c(F)c2)n1 [compound 39, 6-[[2,6-difluoro-4-(1-methylpyrazol-3-yl)phenyl]methyl]-N-[(1S,2S)-2-hydroxycyclohexyl]imidazo[1,2-a]pyridine-8-carboxamide]
4350 nM	79%	Cn1ccc(-c2ccc(Cc3cc(C(=O)N[C@H]4CCOC[C@@H]4O)c4nccn4c3)cn2)n1 [compound 26, N-[(3R,4S)-3-hydroxytetrahydropyran-4-yl]-6-[[6-(1-methylpyrazol-3-yl)-3-pyridyl]methyl]imidazo[1,2-a]pyridine-8-carboxamide]
4440 nM	81%	O=C(N[C@H]1CCOC[C@@H]1O)c1cc(Cc2ccc(-n3cccn3)cc2)cc2ncnn12 [compound 18, N-[(3R,4S)-3-hydroxytetrahydropyran-4-yl]-7-[(4-pyrazol-1-ylphenyl)methyl]-[1,2,4]triazolo[1,5-a]pyridine-5-carboxamide]
936 nM	83%	Cn1ccc(-c2cc(F)c(Cc3cc(C(=O)N[C@H]4CCCC[C@@H]4O)c4ncnn4c3)c(F)c2)n1 [compound 42, 6-[[2,6-difluoro-4-(1-methylpyrazol-3-yl)phenyl]methyl]-N-[(1S,2S)-2-hydroxycyclohexyl]-[1,2,4]triazolo[1,5-a]pyridine-8-carboxamide]
	46%	O=C(N[C@H]1CCCC[C@@H]1O)c1cc(Cc2ccc(C(F)(F)F)nc2)cn2ccnc12 [compound 64, N-[(1S,2S)-2-hydroxycyclohexyl]-6-[[6-(trifluoromethyl)-3-pyridyl]methyl]imidazo[1,2-a]pyridine-8-carboxamide]
	45%	Cn1cc(-c2ccc(Cc3cc(C(=O)NC4CCOCC4)c4ncnn4c3)cn2)cn1 [compound 14, 6-[[6-(1-methylpyrazol-4-yl)-3-pyridyl]methyl]-N-tetrahydropyran-4-yl-[1,2,4]triazolo[1,5-a]pyridine-8-carboxamide]
341 nM	82%	O=C(N[C@H]1CCOC[C@@H]1O)c1cc(Cc2ccc(-n3cccn3)cc2)cn2ccnc12 [compound 23, N-[(3R,4S)-3-hydroxytetrahydropyran-4-yl]-6-[(4-pyrazol-1-ylphenyl)methyl]imidazo[1,2-a]pyridine-8-carboxamide]
2550 nM	82%	Cc1nc(-c2ccc(Cc3cc(C(=O)N[C@H]4CCOC[C@@H]4O)c4ncnn4c3)cc2)co1 [compound 29, N-[(3R,4S)-3-hydroxytetrahydropyran-4-yl]-6-[[4-(2-methyloxazol-4-yl)phenyl]methyl]-[1,2,4]triazolo[1,5-a]pyridine-8-carboxamide]
